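How tested: cells in 96-well plates exposed to compound for 48 hours at five concentrations. The concentration for 50% growth inhibition is given as GI50. The concentration for full growth arrest is given as TGI.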
Experiments:
Assay in all cases: NCI-60 cell line screen, 48 h
[1] = tested on: SR leukemia
[2] = tested on: RPMI-8226 leukemia
[3] = tested on: MALME-3M melanoma
[4] = tested on: DU-145 prostate
[5] = tested on: 786-0 renal
[6] = tested on: OVCAR-5 ovarian
[7] = tested on: ACHN renal
[8] = tested on: OVCAR-4 ovarian
[9] = tested on: HCC-2998 colon
[10] = tested on: SNB-19 CNS
[11] = tested on: IGROV1 ovarian
[12] = tested on: U251 CNS
[13] = tested on: UACC-257 melanoma
[14] = tested on: TK-10 renal
[15] = tested on: COLO 205 colon
[16] = tested on: A549 NSCLC
[17] = tested on: NCI-H522 lung
[18] = tested on: OVCAR-3 ovarian
[19] = tested on: CAKI-1 renal
[20] = tested on: SW-620 colon
[21] = tested on: HS 578T breast
[22] = tested on: M14 melanoma
[23] = tested on: SF-539 CNS
[24] = tested on: LOX IMVI melanoma
[25] = tested on: SK-MEL-2 melanoma
[26] = tested on: UACC-62 melanoma
[27] = tested on: HL-60(TB) leukemia
[28] = tested on: NCI-H226 lung
[29] = tested on: SF-268 CNS
[30] = tested on: NCI-H23 lung
[31] = tested on: BT-549 breast
[32] = tested on: MDA-MB-435
[33] = tested on: SK-MEL-28 melanoma
[34] = tested on: UO-31 renal
[35] = tested on: HCT-15 colon
[36] = tested on: MCF7 breast
[37] = tested on: MDA-MB-231 breast
[38] = tested on: KM12 colon
[39] = tested on: SNB-75 CNS
[40] = tested on: PC-3 prostate
[41] = tested on: K-562 leukemia
[42] = tested on: EKVX NSCLC
[43] = tested on: HOP-92 NSCLC
[44] = tested on: HCT-116 colon
[45] = tested on: SK-OV-3 ovarian
[46] = tested on: CCRF-CEM leukemia
[47] = tested on: MOLT-4 leukemia
[48] = tested on: A498 renal
[49] = tested on: HOP-62 NSCLC
[50] = tested on: HT29 colon
[51] = tested on: OVCAR-8 ovarian
[52] = tested on: RXF 393 renal
[53] = tested on: NCI/ADR-RES ovarian
[54] = tested on: SF-295 CNS
[55] = tested on: SN12C renal
[56] = tested on: SK-MEL-5 melanoma
[57] = tested on: T-47D breast
[58] = tested on: NCI-H460 lung

Cc1cc(C(NC(=O)CCCCCNc2cccc3c2C(=O)N(C2CCC(=O)NC2=O)C3=O)c2cccnc2)c(O)c2ncccc12 (stereo not drawn)
GI50 [1]: 433 nM | TGI [1]: > 54200 nM | GI50 [2]: 1350 nM | TGI [2]: > 100000 nM | GI50 [3]: < 10 nM | TGI [3]: 22.4 nM | GI50 [4]: 1920 nM | TGI [4]: > 100000 nM | GI50 [5]: 164 nM | TGI [5]: 14700 nM | GI50 [6]: 637 nM | TGI [6]: > 100000 nM | GI50 [7]: 3580 nM | TGI [7]: > 59500 nM | GI50 [8]: 22.1 nM | TGI [8]: 325 nM | GI50 [9]: 26.4 nM | TGI [9]: 2450 nM | GI50 [10]: 273 nM | TGI [10]: > 100000 nM | GI50 [11]: 27.2 nM | TGI [11]: 3800 nM | GI50 [12]: 641 nM | TGI [12]: > 100000 nM | GI50 [13]: 2090 nM | TGI [13]: > 27600 nM | GI50 [14]: 413 nM | TGI [14]: > 100000 nM | GI50 [15]: 28.8 nM | TGI [15]: 1670 nM | GI50 [16]: 734 nM | TGI [16]: 28000 nM | GI50 [17]: 639 nM | GI50 [18]: 252 nM | TGI [18]: 15600 nM | GI50 [19]: 471 nM | TGI [19]: 16700 nM | GI50 [20]: 21 nM | TGI [20]: > 100000 nM | GI50 [21]: 18.4 nM | TGI [21]: 7090 nM | GI50 [22]: 100 nM | TGI [22]: 4990 nM | GI50 [23]: 933 nM | TGI [23]: 8950 nM | GI50 [24]: 856 nM | TGI [24]: 12400 nM | GI50 [25]: 485 nM | TGI [25]: 11400 nM | GI50 [26]: 1810 nM | TGI [26]: 6350 nM | GI50 [27]: < 13.4 nM | TGI [27]: 35.5 nM | GI50 [28]: 32.4 nM | TGI [28]: 961 nM | GI50 [29]: 112 nM | TGI [29]: 18800 nM | GI50 [30]: 1800 nM | TGI [30]: 43800 nM | GI50 [31]: < 12.8 nM | TGI [31]: 39.2 nM | GI50 [32]: 2350 nM | TGI [32]: > 100000 nM | GI50 [33]: 904 nM | TGI [33]: > 74900 nM | GI50 [34]: 362 nM | TGI [34]: 34400 nM | GI50 [35]: 228 nM | TGI [35]: > 100000 nM | GI50 [36]: 62.5 nM | TGI [36]: 14000 nM | GI50 [37]: 13.6 nM | TGI [37]: 193 nM | GI50 [38]: 199 nM | TGI [38]: 21300 nM | GI50 [39]: 20.8 nM | TGI [39]: 5320 nM | GI50 [40]: 20.7 nM | GI50 [41]: 1210 nM | TGI [41]: > 100000 nM | GI50 [42]: 809 nM | TGI [42]: > 22500 nM | GI50 [43]: < 12.1 nM | TGI [43]: 304 nM | GI50 [44]: 1520 nM | TGI [44]: > 100000 nM | GI50 [45]: 222 nM | TGI [45]: 3920 nM | GI50 [46]: < 10 nM | TGI [46]: > 100000 nM | GI50 [47]: < 10 nM | TGI [47]: 156 nM | GI50 [48]: 202 nM | TGI [48]: 6520 nM | GI50 [49]: 21.4 nM | TGI [49]: 685 nM | GI50 [50]: 446 nM | TGI [50]: > 100000 nM | GI50 [51]: < 16.3 nM | TGI [51]: 8330 nM | GI50 [52]: 221 nM | TGI [52]: 2280 nM | GI50 [53]: 13400 nM | TGI [53]: > 100000 nM | GI50 [54]: 291 nM | TGI [54]: 8140 nM | GI50 [55]: 50.1 nM | GI50 [56]: 52.5 nM | TGI [56]: 999 nM | GI50 [57]: 10.3 nM | TGI [57]: 5120 nM | GI50 [58]: 1510 nM | TGI [58]: 28100 nM

— PubChem BioAssay (NCI)
